Data on one substance can be found in publication PMC10827914 (Cellular and Molecular Life Sciences: CMLS, 2024).

Data set [1] concerns WEHI-164 fibrosarcoma. Briefly: Antitumor activity in WEHI-164 fibrosarcoma-bearing mice. Format: in vivo. The procedure:
Female BALB/c mice (Charles River Laboratories, Calco, Italy), weighing 16–18 g, were subcutaneously injected into the left flank of 10^6 WEHI-164 cells (ATCC, cat. CRL-1751, Lot. 63,682,839). Dose-finding experiments were performed with groups of six mice treated with G4-TNF (4, 20, or 100 pg/dose in 100 μL of 0.9% sodium chloride containing 100 µg/ml HSA, intraperitoneally injected on day 5) or vehicle. Tumor growth was monitored daily by measuring tumor volume with calipers, as previously described. The animals were sacrificed before the tumor diameter reached 1.0–1.5 cm. To test whether the antitumor activity of G4-TNF was mediated by CD13, tumor-bearing mice (6 animals/group) were treated with a single injection of G4-TNF (100 pg/dose, i.p.) in combination with peptide CNGRC (100 µg/dose) or anti-CD13 mAb R3-63 (25 µg/dose, given 1.5 h i.p. before administration of G4-TNF) 5 days after tumor implantation.
Fig. 3 Effect of G4-TNF on tumor growth and body weight of mice bearing WEHI-164 fibrosarcomas. A Mice bearing subcutaneous WEHI-164 tumors (5–6 mice/groups) were treated 5 days after tumor implantation with a single intraperitoneal injection of G4-TNF (0, 4, 20, or 100 pg). Tumor volume and body weight after treatment were monitored daily. B Effect of mAb R3-63 (anti-murine CD13 antibody, 25 µg) and CNGRC peptide (100 µg) on the antitumor activity of G4-TNF (100 pg) (5–6 mice/group). The arrows indicate the time of treatment. *P < 0.05; **P < 0.01, by Mann–Whitney analysis of the area under the curve for each tumor, with the GraphPad Prism software (mean ± SEM)
A) Mice bearing subcutaneous WEHI-164 tumors (6 mice/groups), were treated 5-6 days after tumor implantation with a single intraperitoneal injection of murine NGR-TNF (0, 25, 50, or 100 pg). Tumor volume and body weight after treatment were monitored daily.
B) Effect of murine TNF (50 pg) on tumor growth and body weight. The arrows indicate the time of treatment (mean ± SEM).

The test system of data set [2] is HUVEC. Briefly: Cytotoxicity assay on adherent and non-adherent HUVEC. Format: cell-based, human. Conditions: adherent and non-adherent cells, concentrations lower than 100 pg/ml, 24 h, MTT. The procedure:
The supernatant was removed using a Pasteur pipet connected to a vacuum pump, and 200 µL of dimethyl sulfoxide was then added to each well to dissolve the formazan crystals. The absorbance at 570 nm was then read using a microtiter plate reader.
The cytotoxicity assay with cell in suspension was carried out following the same protocol except that the overnight incubation of the microtiter plate after cell plating was omitted.

Data set [3] relates to CD13 expressed in HL-60 cells. Briefly: Inhibition of cell-associated CD13 enzymatic activity, HL-60 cells. Conditions: 3 × 10^5 cells/well, L-alanine p-nitroanilide, 30 min, 37 °C, absorbance 405 nm. Type of data set: cell-based, human. The procedure:
(§1) Fig. 5 Quantification of CD13 expressed by HL-60 and HUVEC by western blotting and FACS analyses, and determination of their enzymatic activity. A Western blotting (WB) analysis of CD13 expression in HL-60 cells and HUVEC. For both cell lines, 2 µg of cell lysates were loaded in each well (n = 4–5 replicates, as indicated). After blotting, the membrane was cut and analyzed for CD13 and actin expression as described in Material and methods. The results of one representative experiment, out of three independent experiments performed, are shown (bars, ratio of CD13/actin band intensity, mean ± SEM). Recombinant human CD13 (rCD13) (20 ng) was loaded as positive control. MW, molecular weight markers. B FACS analysis of CD13 expression in HUVEC and HL-60 cells. The cells were incubated with mAb WM15 (10 μg/mL) and stained with a FITC-labeled goat anti-mouse IgG (H + L) secondary antibody. Data were expressed as fluorescence intensity and normalized to the number of cells. The cumulative results of three independent experiments are shown (each performed in duplicate; mean ± SEM). C Enzyme activity assay of CD13 expressed in HUVEC and HL-60 cells. […] Absorbance at 405 nm was measured using a plate reader. The enzyme units in each sample were calculated using rCD13 as a standard and were normalized to the number of cells. […] The absorbance was measured at 405 nm using a plate reader. […]

For data set [4], the system named is CD13 expressed in HUVEC. Briefly: Inhibition of cell-associated CD13 enzymatic activity, HUVEC. Type of data set: cell-based, human. The note with it: 3 × 10^5 cells/well, L-alanine p-nitroanilide, 30 min, 37 °C, absorbance 405 nm. The procedure:
as §1

“VGCARRYCS-TNF [G4-TNF, recombinant murine TNF fused to the C-terminus of G4]”: in data set [1] (mice after treatment with 4, 20 or 100 pg i.p.), the “Body weight and clinical signs of toxicity” value was “No loss of body weight and no other clinical signs of toxicity”. The “Antitumor effect (tumor growth)” value in data set [1] (single intraperitoneal injection of 100 pg, 5 days after tumor implantation) is on record as “significant antitumor effects”. Moreover, the “Cytotoxic effects on HUVEC (in words)” value in data set [2] is recorded as “No or minimal cytotoxic effects”. The “Inhibition of CD13 enzymatic activity associated with HL-60 cells (in words)” value in data set [3] is on record as “did not inhibit”. Moreover, in data set [4], the “Inhibition of CD13 enzymatic activity associated with HUVEC (in words)” value is listed as “did not inhibit”.
